Literature values as cited in US8536091B2, “System for protection of plants from pathogens using alkamides” (priority 2008, dated 2013).

System: microbial plant pathogens, including bacteria and fungi
Settings: in the absence of plants; relatively high levels

## C/C=C/C=C\CC/C=C/C(=O)NCC(C)C [affinin, N-isobutyl-deca-2E,6Z,8E-trieneamide]
  in vitro growth inhibition of microbial plant pathogens: inhibit the growth of some microbial plant pathogens
